± gives the standard deviation of the averaged measurements.
Key:
Details in all cases: 72 h
Caco-2 [1] = test: relative viability EC50 (midpoint between 100% and the lowest measured viability); higher = less toxic
Calu-3 [2] = test: as above
HepG2 [3] = test: as above
U2OS [4] = test: as above
Vero E6 [5] = test: as above
Caco-2 [6] = test: cell viability relative to DMSO; higher = less toxic
Calu-3 [7] = test: as above
HepG2 [8] = test: as above
U2OS [9] = test: as above
Vero E6 [10] = test: as above
Caco-2 [11] = test: drug sensitivity score (DSS) for viability; higher = more toxic; extreme values may be limits of the assay
Calu-3 [12] = test: as above
HepG2 [13] = test: as above
U2OS [14] = test: as above
Vero E6 [15] = test: as above

| Compound | relative viability EC50 (Caco-2 [1]) | relative viability EC50 (Calu-3 [2]) | relative viability EC50 (HepG2 [3]) | relative viability EC50 (U2OS [4]) | relative viability EC50 (Vero E6 [5]) | cell viability (Caco-2 [6]; 1 nM) | cell viability (Caco-2 [6]; 10 nM) | cell viability (Caco-2 [6]; 100 nM) | cell viability (Caco-2 [6]; 1000 nM) | cell viability (Caco-2 [6]; 10000 nM) | cell viability (Calu-3 [7]; 1 nM) | cell viability (Calu-3 [7]; 10 nM) | cell viability (Calu-3 [7]; 100 nM) | cell viability (Calu-3 [7]; 1000 nM) | cell viability (Calu-3 [7]; 10000 nM) | cell viability (HepG2 [8]; 1 nM) | cell viability (HepG2 [8]; 10 nM) | cell viability (HepG2 [8]; 100 nM) | cell viability (HepG2 [8]; 1000 nM) | cell viability (HepG2 [8]; 10000 nM) | cell viability (U2OS [9]; 1 nM) | cell viability (U2OS [9]; 10 nM) | cell viability (U2OS [9]; 100 nM) | cell viability (U2OS [9]; 1000 nM) | cell viability (U2OS [9]; 10000 nM) | cell viability (Vero E6 [10]; 1 nM) | cell viability (Vero E6 [10]; 10 nM) | cell viability (Vero E6 [10]; 100 nM) | cell viability (Vero E6 [10]; 1000 nM) | cell viability (Vero E6 [10]; 10000 nM) | drug sensitivity score (Caco-2 [11]) | drug sensitivity score (Calu-3 [12]) | drug sensitivity score (HepG2 [13]) | drug sensitivity score (U2OS [14]) | drug sensitivity score (Vero E6 [15]) |
| --- | --- | --- | --- | --- | --- | --- | --- | --- | --- | --- | --- | --- | --- | --- | --- | --- | --- | --- | --- | --- | --- | --- | --- | --- | --- | --- | --- | --- | --- | --- | --- | --- | --- | --- | --- |
| CCC(COC(=O)c1cc(OC)c(OC)c(OC)c1)(c1ccccc1)N(C)C (stereo not given) [trimebutine] | > 10 µM | > 10 µM | > 10 µM | > 10 µM | > 10 µM | 94.5% | 93.1% | 95.4% | 91.3% | 88.4% | 97.5% | 104% | 100% | 95.6% | 100% | 99.8% | 104% | 103% | 96.7% | 96.9% | 94.8% | 101% | 102% | 97.2% | 92.6% | 98.2% | 102% | 98.4% | 100% | 98.2% | 0 | 0 | 0 | 0 | 0 |
| Cc1c(C)c2c(c(C)c1O)CCC(C)(COc1ccc(CC3SC(=O)NC3=O)cc1)O2 (stereo not given) [troglitazone] | > 10 µM | > 10 µM | > 10 µM | > 10 µM | > 10 µM | 89% | 116% | 106% | 93.4% | 106% | 112% | 98.2% | 110% | 98.4% | 108% | 87.7% | 103% | 104% | 90.6% | 98.5% | 95.2% | 100% | 95% | 101% | 101% | 101% | 92.2% | 101% | 95.9% | 101% | 0 | 0 | 0 | 0 | 0 |
| COc1cc2c3cc1Oc1cc(ccc1O)C[C@@H]1c4c(cc(OC)c(O)c4Oc4ccc(cc4)C[C@@H]3N(C)CC2)CC[N+]1(C)C [tubocurarine] | > 10 µM | > 10 µM | > 10 µM | > 10 µM | > 10 µM | 93.5% | 115% | 102% | 108% | 111% | 107% | 102% | 103% | 102% | 91.3% | 99.5% | 94.5% | 94.6% | 94.6% | 97.6% | 93.5% | 97.2% | 98.4% | 99.9% | 106% | 108% | 88.9% | 107% | 98.4% | 118% | 0 | 0 | 0 | 0 | 0 |
| OC(c1ccccc1)(c1ccccc1)C12CC[N+](CCOCc3ccccc3)(CC1)CC2 [umeclidinium] | > 10 µM | > 10 µM | > 10 µM | > 10 µM | > 10 µM | 105% | 97.1% | 94.1% | 104% | 97.8% | 95.1% | 102% | 107% | 101% | 92.8% | 96.6% | 99.5% | 101% | 97.1% | 106% | 95.8% | 99.2% | 98.7% | 99% | 99.9% | 97% | 96.1% | 92.9% | 96.2% | 101% | 0 | 0 | 0 | 0 | 0 |
| CCCc1nc(C)c2c(=O)nc(-c3cc(S(=O)(=O)N4CCN(CC)CC4)ccc3OCC)[nH]n12 [vardenafil] | > 10 µM | > 10 µM | > 10 µM | > 10 µM | > 10 µM | 95.7% | 93% | 101% | 104% | 99.9% | 105% | 88.8% | 99.5% | 96.5% | 101% | 98.7% | 100% | 96.4% | 101% | 89.8% | 102% | 98.1% | 103% | 99.1% | 99.5% | 100% | 107% | 102% | 106% | 99.6% | 0 | 0 | 0 | 0 | 0 |
| Nc1ccn([C@H]2CC[C@@H](CO)O2)c(=O)n1 [zalcitabine] | > 10 µM | > 10 µM | > 10 µM | > 10 µM | > 10 µM | 94.2% | 99.2% | 90.6% | 93.5% | 98.7% | 99.2% | 91.1% | 103% | 101% | 106% | 101% | 93.1% | 98.3% | 94.8% | 98.9% | 101% | 105% | 94.2% | 97.2% | 99.1% | 102% | 104% | 100% | 99.1% | 90.9% | 0 | 0 | 0 | 0 | 0 |
| CC(C)N[C@H]1CCn2c(=O)[nH]c3cccc(c32)[C@@H]1O [zilpaterol] | > 10 µM | > 10 µM | > 10 µM | > 10 µM | > 10 µM | 92.8 ± 2.5% | 97.75 ± 0.071% | 100 ± 3.2% | 96.9 ± 2.5% | 95.3 ± 9.4% | 103 ± 1.5% | 97.2 ± 10% | 105 ± 1.1% | 93 ± 3.9% | 97.5 ± 0.42% | 104.9 ± 0.57% | 105.5 ± 0.78% | 104 ± 2% | 95.95 ± 0.071% | 105 ± 3% | 100 ± 2.1% | 99.1 ± 5.2% | 97.4 ± 3% | 98.6 ± 8.3% | 101 ± 3.3% | 98.1 ± 11% | 99.5 ± 0.28% | 94.8 ± 8.6% | 99 ± 7.4% | 104 ± 9.6% | 0 | 0 | 0 | 0 | 0 |
